The NIST ThermoML archive (doi:10.1016/j.fluid.2014.06.024)

Experiment: molar heat capacity at constant pressure; xn = mol fraction of the nth substance listed
Conditions: 101 kPa, Liquid, Small sample (50 mg) DSC

C1CCOCC1 [tetrahydropyran] + c1ccccc1
molar heat capacity at constant pressure [J/K/mol]
Conditions | 298.15 K | 303.15 K | 308.15 K
x1 = 0.0859 | 136.89 | 138.21 | 139.54
x1 = 0.1279 | 137.71 | 139.06 | 140.44
x1 = 0.1598 | 138.32 | 139.7 | 141.1
x1 = 0.1982 | 139.05 | 140.45 | 141.88
x1 = 0.2254 | 139.56 | 140.97 | 142.43
x1 = 0.2657 | 140.3 | 141.72 | 143.21
x1 = 0.3017 | 140.94 | 142.38 | 143.89
x1 = 0.3509 | 141.8 | 143.26 | 144.8
x1 = 0.3898 | 142.45 | 143.93 | 145.5
x1 = 0.4176 | 142.91 | 144.39 | 145.99
x1 = 0.4428 | 143.31 | 144.81 | 146.42
x1 = 0.4987 | 144.17 | 145.7 | 147.36
x1 = 0.5234 | 144.54 | 146.08 | 147.76
x1 = 0.5592 | 145.05 | 146.61 | 148.32
x1 = 0.5983 | 145.58 | 147.17 | 148.91
x1 = 0.6132 | 145.78 | 147.37 | 149.13
x1 = 0.6478 | 146.23 | 147.84 | 149.63
x1 = 0.6876 | 146.71 | 148.35 | 150.17
x1 = 0.7231 | 147.12 | 148.78 | 150.63
x1 = 0.7623 | 147.55 | 149.22 | 151.1
x1 = 0.7905 | 147.85 | 149.53 | 151.42
x1 = 0.8217 | 148.15 | 149.84 | 151.75
x1 = 0.8507 | 148.43 | 150.12 | 152.04
x1 = 0.9003 | 148.86 | 150.54 | 152.47

C1CCOCC1 [tetrahydropyran] + Cc1ccccc1
molar heat capacity at constant pressure [J/K/mol]
Conditions | 298.15 K | 303.15 K | 308.15 K
x1 = 0.0937 | 157 | 158.5 | 160.08
x1 = 0.1369 | 156.86 | 158.39 | 159.99
x1 = 0.1932 | 156.64 | 158.18 | 159.81
x1 = 0.2308 | 156.46 | 158.01 | 159.65
x1 = 0.2894 | 156.15 | 157.71 | 159.37
x1 = 0.3187 | 155.98 | 157.54 | 159.22
x1 = 0.3507 | 155.79 | 157.35 | 159.04
x1 = 0.3916 | 155.52 | 157.09 | 158.79
x1 = 0.4206 | 155.32 | 156.9 | 158.61
x1 = 0.4618 | 155.02 | 156.61 | 158.34
x1 = 0.4906 | 154.81 | 156.4 | 158.14
x1 = 0.5137 | 154.63 | 156.23 | 157.98
x1 = 0.5517 | 154.32 | 155.94 | 157.71
x1 = 0.5907 | 154 | 155.62 | 157.42
x1 = 0.6208 | 153.74 | 155.38 | 157.19
x1 = 0.6623 | 153.37 | 155.02 | 156.86
x1 = 0.6987 | 153.03 | 154.69 | 156.55
x1 = 0.7135 | 152.89 | 154.56 | 156.42
x1 = 0.751 | 152.52 | 154.2 | 156.08
x1 = 0.7917 | 152.1 | 153.79 | 155.68
x1 = 0.8246 | 151.75 | 153.44 | 155.34
x1 = 0.8516 | 151.45 | 153.14 | 155.05
x1 = 0.8914 | 150.99 | 152.67 | 154.58
x1 = 0.9123 | 150.74 | 152.41 | 154.32

Cc1ccccc1C [1,2-dimethylbenzene] + C1CCOCC1
molar heat capacity at constant pressure [J/K/mol]
Conditions | 298.15 K | 303.15 K | 308.15 K
x2 = 0.0918 | 184.41 | 186 | 187.56
x2 = 0.1317 | 183.03 | 184.64 | 186.23
x2 = 0.1765 | 181.48 | 183.1 | 184.72
x2 = 0.2108 | 180.29 | 181.92 | 183.55
x2 = 0.2543 | 178.76 | 180.4 | 182.06
x2 = 0.2876 | 177.59 | 179.23 | 180.91
x2 = 0.3105 | 176.77 | 178.42 | 180.11
x2 = 0.3651 | 174.81 | 176.47 | 178.18
x2 = 0.4187 | 172.86 | 174.53 | 176.26
x2 = 0.4498 | 171.71 | 173.38 | 175.13
x2 = 0.491 | 170.18 | 171.85 | 173.62
x2 = 0.5217 | 169.03 | 170.7 | 172.47
x2 = 0.5518 | 167.88 | 169.56 | 171.34
x2 = 0.5871 | 166.53 | 168.2 | 170
x2 = 0.6218 | 165.19 | 166.86 | 168.66
x2 = 0.6617 | 163.62 | 165.29 | 167.1
x2 = 0.6901 | 162.5 | 164.16 | 165.98
x2 = 0.7219 | 161.23 | 162.89 | 164.71
x2 = 0.7561 | 159.85 | 161.5 | 163.33
x2 = 0.7918 | 158.39 | 160.04 | 161.87
x2 = 0.8231 | 157.11 | 158.75 | 160.58
x2 = 0.8651 | 155.36 | 156.99 | 158.83
x2 = 0.8902 | 154.31 | 155.93 | 157.78
x2 = 0.9234 | 152.9 | 154.52 | 156.37
